Reference: US20030060445A1, “Nutritional formulation containing prebiotic substances” (priority 2000, published 2003)

Key:
Assay type in all cases: cell-based
[1] = test system: Clostridia; test: Batch culture growth of Clostridia, titers on selective agar (Example 1); details: carbohydrate-deficient PYG batch culture, 37° C., anaerobic; supplement in place of glucose 3.0 g/L; FIG. 1
Experimental: (§1) Identical inoculua (A600∇1.0) of overnight cultures (PYG broth, 37° C., anaerobic) of each organism (Clostridia, Bacteroides, or B. lactis) were grown in batch culture (37° C., anaerobic) with constant stirring. Carbohydrate-deficient batch culture media (PYG) was supplemented with either glucose (3.0 g/L), oligofructose (FOS at 3.0 g/L), sialyllactose (3′- or 6′-sialyllactose at […]), or oligofructose plus sialyllactose (3.0 g/l and 100 mg/L, respectively). Growth was monitored at various time points (see FIG. 1) by determining the titers of the bacteria on selective agar (BIM-25 agar for Bifidobacteria and Wilkens-Chalgren agar for Clostridia and Bacteroides).

[2] = test system: Bacteroides; test: Batch culture growth of Bacteroides, titers on selective agar (Example 1); details: carbohydrate-deficient PYG batch culture, 37° C., anaerobic; supplement in place of glucose 3.0 g/L; FIG. 1
Experimental: as §1

[3] = test system: Clostridia; test: Media pH of Clostridia batch culture (Example 3); details: PYG batch culture, 37° C., anaerobic; pH monitored at various time points; FIG. 3
Experimental: (§2) Identical inoculua (A600∇1.0) of overnight cultures (PYG broth, 37° C., anaerobic) of each organism was grown in batch culture (37° C., anaerobic) with constant stirring. Carbohydrate-deficient batch culture media (PYG) was supplemented as above. The media pH were monitored at various time points.

[4] = test system: Bacteroides; test: Media pH of Bacteroides batch culture (Example 3); details: PYG batch culture, 37° C., anaerobic; pH monitored at various time points; FIG. 3
Experimental: as §2

[5] = test system: B. lactis; test: Media pH of Bifidobacteria batch culture (Example 3); details: PYG batch culture, 37° C., anaerobic; pH monitored at various time points; FIG. 3
Experimental: as §2

| Molecule | growth of Clostridia [1] | growth of Bacteroides [2] | media pH change, Clostridia culture [3] | media pH change, Bacteroides culture [4] | media pH change, Bifidobacteria (B. lactis / B. infantis) culture [5] |
| --- | --- | --- | --- | --- | --- |
| CC(=O)N[C@H]1[C@H]([C@H](O)[C@H](O)CO)O[C@@](O[C@H]2[C@@H](O)[C@@H](CO)O[C@@H](O[C@H]3[C@H](O)[C@@H](O)C(O)O[C@@H]3CO)[C@@H]2O)(C(=O)O)C[C@@H]1O (some centres unmarked) [3′-sialyllactose] | essentially no growth | essentially no growth | – | – | – |
| sialyllactose | – | – | the pH increased | the pH increased | the pH increased |
